We go through 1 molecule from article PMC6717215, “Chemical characterization and biological activity data for a novel indirubin derivative, LDD-1819” (Data in Brief, 2019).

Where a name gives a salt, the structure may show the parent alone.

Test [1] deals with T1, aurora kinase A (Homo sapiens, UniProt O14965).
T1 construct: gene AURKA
T1 sequence (O14965 1-403): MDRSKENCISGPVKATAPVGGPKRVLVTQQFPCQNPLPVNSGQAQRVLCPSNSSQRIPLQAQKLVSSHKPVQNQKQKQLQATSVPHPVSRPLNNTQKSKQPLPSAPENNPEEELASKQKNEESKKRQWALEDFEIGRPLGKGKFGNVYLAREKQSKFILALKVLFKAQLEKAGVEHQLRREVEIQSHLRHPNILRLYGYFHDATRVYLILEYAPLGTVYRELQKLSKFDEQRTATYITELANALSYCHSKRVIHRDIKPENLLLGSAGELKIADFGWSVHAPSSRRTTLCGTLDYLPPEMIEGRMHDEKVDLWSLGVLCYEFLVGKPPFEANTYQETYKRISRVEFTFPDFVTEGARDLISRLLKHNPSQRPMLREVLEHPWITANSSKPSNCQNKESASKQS
The test can be described thus: Z′-LYTE FRET peptide biochemical kinase assay, ATP at Km, concentration-dependent.

Test [2] has as its target T2, glycogen synthase kinase-3 β (GSK-3β) (Homo sapiens, UniProt P49841).
T2 construct: gene GSK3B
The description is as above.

T2 sequence (P49841 whole entry): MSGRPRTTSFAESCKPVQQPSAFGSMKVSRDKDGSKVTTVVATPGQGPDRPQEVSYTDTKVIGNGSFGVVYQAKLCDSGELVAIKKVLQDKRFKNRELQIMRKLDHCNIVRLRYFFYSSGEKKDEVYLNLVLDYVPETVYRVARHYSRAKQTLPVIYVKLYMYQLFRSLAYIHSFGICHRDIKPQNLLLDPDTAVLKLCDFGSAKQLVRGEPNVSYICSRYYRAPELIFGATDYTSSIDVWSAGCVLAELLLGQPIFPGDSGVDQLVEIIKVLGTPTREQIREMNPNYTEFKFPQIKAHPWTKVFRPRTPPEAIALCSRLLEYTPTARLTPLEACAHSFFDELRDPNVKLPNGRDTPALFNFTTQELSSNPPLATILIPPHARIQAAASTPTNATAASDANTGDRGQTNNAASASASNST

On to `NCCO/N=C1/C(=C2/C(=O)Nc3ccc([N+](=O)[O-])cc32)Nc2ccc(O)cc21` [LDD-1819, (2Z,3E)-3-((2-aminoethoxy)imino)-5-hydroxy-5′-nitro-[2,3′-biindolinylidene]-2′-one hydrochloride], for which the IC50 – broadly, the point on the concentration scale where inhibition reaches its midpoint – in test [1] turned out to be 222 nM; in test [2] it was 5.46 nM.
